From publication PMC4877006, “From Binding-Induced Dynamic Effects in SH3 Structures to Evolutionary Conserved Sectors” (PLoS Computational Biology, 2016)

Tests used:
Parameters in all cases: species or system chicken
c-Src H59R (SH3 domain) = target: T1, c-Src H59R (SH3 domain) (Gallus gallus, UniProt P00523, H122R/Q128R); assay: ITC binding of peptide RLP2 to c-Src SH3 H59R; details: 25 °C
T1 construct: The plasmid pET15b containing the chicken c-Src-SH3 domain gene; made in house
Protocol: (§1) Differential Scanning Calorimetry (DSC) was used to evaluate the effect of the mutation on the conformational equilibrium and stability of the protein. Isothermal Titration Calorimetry (ITC) measured the binding energetics of all mutants to the RLP2 ligand at 25°C. The results for the 15 mutants studied are summarized in Figs 1D, S1 and S2, as well as S3 and S4 Tables.
(§2) The plasmid pET15b containing the chicken c-Src-SH3 domain gene was a generous gift from Dr. E. Freire (Johns Hopkins University). The genes encoding for the c-Src-SH3 mutants were obtained by site directed mutagenesis using the QuickChange Site-Directed-Mutagenesis Kit (Stratagene) taking the WT c-Src-SH3 plasmid as template or purchased from Top Gene Technologies, Canada. WT and mutants of c-Src-SH3 domain were expressed and purified as previously described for the wild type protein [68]. The peptide RLP2 (Ac-RALPPLPRY-NH2) was bought from Peptide 2.0 (Piscataway, USA) and JPT (Berlin, Germany) with a purity > 95%. Protein concentration was determined by absorbance at 280 nm using an extinction coefficient of 16500 M^-1·cm^-1. Peptide concentration was determined by absorbance at 274 nm using an extinction coefficient of 1400 M^-1·cm^-1.
(§3) Isothermal titration calorimetry was performed using a high-precision VP titration calorimetric system (Microcal Inc., Northampton, MA) as previously described. […] Titrations were made using a profile of injection volumes from 3 μL to 20 μL to define the titration curve more clearly. The heat produced by the binding reaction between the Src-SH3 domain and the peptide ligand was calculated as the difference between the heat of reaction and the corresponding heat of dilution, as obtained from independent titrations of the peptide ligand into the buffer. The resulting binding isotherms were analyzed by non-linear least-square fittings of the experimental data to a model corresponding to a single set of identical sites, as described before.
(§4) Supplementary file pcbi.1004938.s008.doc: S3 Table Analysis of Src SH3 binding affinities through ITC. Thermodynamic binding affinity to peptide RLP2. A * indicates experiment made by fluorescence titration only. (DOC) Click here for additional data file.

c-Src S26A (SH3 domain) = assay: ITC binding of peptide RLP2 to c-Src SH3 S26A; details: 25 °C
Protocol: as §1, §2, §3, §4

c-Src F18L (SH3 domain) [1] = target: T2, c-Src F18L (SH3 domain) (Gallus gallus, UniProt P00523, F86L/Q128R); assay: ITC binding of peptide RLP2 to c-Src SH3 F18L; details: ITC, 25 °C
T2 construct: The plasmid pET15b containing the chicken c-Src-SH3 domain gene; made in house
Protocol: as §1, §2, §3, §4

c-Src F18L (SH3 domain) [2] = assay: ITC binding of peptide RLP2 to c-Src SH3 F18L; details: 25 °C, binding of RLP2, F18L relative to wt
Protocol: as §1, §2, §3, §4

c-Src F18W (SH3 domain) = target: T3, c-Src F18W (SH3 domain) (Gallus gallus, UniProt P00523, F86W); assay: ITC binding of peptide RLP2 to c-Src SH3 F18W; details: 25 °C
T3 construct: The plasmid pET15b containing the chicken c-Src-SH3 domain gene; made in house
Protocol: as §1, §2, §3, §4

c-Src L40I (SH3 domain) = target: T4, c-Src L40I (SH3 domain) (Gallus gallus, UniProt P00523, L108I); assay: ITC binding of peptide RLP2 to c-Src SH3 L40I; details: 25 °C
T4 construct: The plasmid pET15b containing the chicken c-Src-SH3 domain gene; made in house
Protocol: as §1, §2, §3, §4

c-Src F34I (SH3 domain) = target: T5, c-Src F34I (SH3 domain) (Gallus gallus, UniProt P00523, F102I/Q128R); assay: ITC binding of peptide RLP2 to c-Src SH3 F34I; details: 25 °C
T5 construct: The plasmid pET15b containing the chicken c-Src-SH3 domain gene; made in house
Protocol: as §1, §2, §3, §4

c-Src wt (SH3 domain) = target: T6, c-Src wt (SH3 domain) (Gallus gallus, UniProt P00523, Q128R); assay: ITC binding of peptide RLP2 to c-Src SH3 wt; details: 25 °C
T6 construct: The plasmid pET15b containing the chicken c-Src-SH3 domain gene; made in house
Protocol: as §1, §2, §3, §4

c- Src I77V (SH3 domain) = target: T7, c- Src I77V (SH3 domain) (Gallus gallus, UniProt P00523, I132V); assay: ITC binding of peptide RLP2 to c-Src SH3 I77V; details: 25 °C, binding of RLP2, I77V relative to wt
T7 construct: The plasmid pET15b containing the chicken c-Src-SH3 domain gene; made in house
Protocol: as §1, §2, §3, §4

[3] = binding of RLP2, H59R relative to wt
[4] = binding of RLP2, S26A relative to wt
[5] = binding of RLP2, F18W relative to wt
[6] = binding of RLP2, L40I relative to wt
[7] = binding of RLP2, F34I relative to wt
[8] = binding of RLP2, wt = reference

Question: What does the source list for “Ac-RALPPLPRY-NH2 [RLP2, Ac-RALPPLPRY-NH2]”?
Answer: ∆∆Gb (25 ºC) (c-Src H59R (SH3 domain); [3]): -0.13 ± 0.03 kcal/mol; ∆∆Hb (25 ºC) (c-Src H59R (SH3 domain); [3]): -0.1 ± 0.3 kcal/mol; ∆Gb (25 ºC) (c-Src H59R (SH3 domain); ITC, binding of RLP2, H59R): -6.76 ± 0.01 kcal/mol; ∆Hb (25 ºC) (c-Src H59R (SH3 domain); ITC, binding of RLP2, H59R): -14.3 ± 0.2 kcal/mol; Kd (c-Src H59R (SH3 domain); ITC, RLP2 about 2 mM titrated into SH3 (50-122 μM), H59R, read-out: Kd (25 ºC)): 11 ± 0.2 µM; ∆∆Gb (25 ºC) (c-Src S26A (SH3 domain); [4]): 0.18 ± 0.06 kcal/mol; ∆∆Hb (25 ºC) (c-Src S26A (SH3 domain); [4]): 0.4 ± 0.5 kcal/mol; ∆Gb (25 ºC) (c-Src S26A (SH3 domain); ITC, binding of RLP2, S26A): -6.45 ± 0.05 kcal/mol; ∆Hb (25 ºC) (c-Src S26A (SH3 domain); ITC, binding of RLP2, S26A): -13.8 ± 0.5 kcal/mol; Kd (c-Src S26A (SH3 domain); ITC, RLP2 about 2 mM titrated into SH3 (50-122 μM), S26A (control), read-out: Kd (25 ºC)): 18.8 ± 1.4 µM; ∆Gb (25 ºC) (c-Src F18L (SH3 domain) [1]; binding of RLP2, F18L): -6.64 ± 0.01 kcal/mol; ∆Hb (25 ºC) (c-Src F18L (SH3 domain) [1]; binding of RLP2, F18L): -14.5 ± 0.1 kcal/mol; Kd (c-Src F18L (SH3 domain) [1]; RLP2 about 2 mM titrated into SH3 (50-122 μM), F18L, read-out: Kd (25 ºC)): 13.5 ± 0.3 µM; ∆∆Gb (25 ºC) (c-Src F18L (SH3 domain) [2]): -0.01 ± 0.03 kcal/mol; ∆∆Hb (25 ºC) (c-Src F18L (SH3 domain) [2]): -0.3 ± 0.2 kcal/mol; ∆∆Gb (25 ºC) (c-Src F18W (SH3 domain); [5]): 0.23 ± 0.03 kcal/mol; ∆∆Hb (25 ºC) (c-Src F18W (SH3 domain); [5]): 1.2 ± 0.2 kcal/mol; ∆Gb (25 ºC) (c-Src F18W (SH3 domain); ITC, binding of RLP2, F18W): -6.40 ± 0.01 kcal/mol; ∆Hb (25 ºC) (c-Src F18W (SH3 domain); ITC, binding of RLP2, F18W): -13.0 ± 0.1 kcal/mol; Kd (c-Src F18W (SH3 domain); ITC, RLP2 about 2 mM titrated into SH3 (50-122 μM), F18W, read-out: Kd (25 ºC)): 20.2 ± 0.3 µM; ∆∆Gb (25 ºC) (c-Src L40I (SH3 domain); [6]): 0.24 ± 0.04 kcal/mol; ∆∆Hb (25 ºC) (c-Src L40I (SH3 domain); [6]): 0.4 ± 0.4 kcal/mol; ∆Gb (25 ºC) (c-Src L40I (SH3 domain); ITC, binding of RLP2, L40I): -6.39 ± 0.02 kcal/mol; ∆Hb (25 ºC) (c-Src L40I (SH3 domain); ITC, binding of RLP2, L40I): -13.8 ± 0.3 kcal/mol; Kd (c-Src L40I (SH3 domain); ITC, RLP2 about 2 mM titrated into SH3 (50-122 μM), L40I, read-out: Kd (25 ºC)): 20.6 ± 0.6 µM; ∆∆Gb (25 ºC) (c-Src F34I (SH3 domain); [7]): 0.79 ± 0.03 kcal/mol; ∆∆Hb (25 ºC) (c-Src F34I (SH3 domain); [7]): 0.6 ± 0.3 kcal/mol; ∆Gb (25 ºC) (c-Src F34I (SH3 domain); ITC, binding of RLP2, F34I): -5.84 ± 0.01 kcal/mol; ∆Hb (25 ºC) (c-Src F34I (SH3 domain); ITC, binding of RLP2, F34I): -13.6 ± 0.3 kcal/mol; Kd (c-Src F34I (SH3 domain); ITC, RLP2 about 2 mM titrated into SH3 (50-122 μM), F34I, read-out: Kd (25 ºC)): 52.6 ± 1.2 µM; ∆∆Gb (25 ºC) (c-Src wt (SH3 domain); [8]): 0 kcal/mol; ∆∆Hb (25 ºC) (c-Src wt (SH3 domain); [8]): 0 kcal/mol; ∆Gb (25 ºC) (c-Src wt (SH3 domain); ITC, binding of RLP2, wt): -6.63 ± 0.03 kcal/mol; ∆Hb (25 ºC) (c-Src wt (SH3 domain); ITC, binding of RLP2, wt): -14.2 ± 0.2 kcal/mol; Kd (c-Src wt (SH3 domain); ITC, RLP2 about 2 mM titrated into SH3 (50-122 μM), single set of identical sites, wt, read-out: Kd (25 ºC)): 13.8 ± 0.6 µM; ∆∆Gb (25 ºC) (c- Src I77V (SH3 domain)): 0.31 ± 0.03 kcal/mol
